Test results taken from patent US20160166701A1, “DELIVERY COMPOSITION FOR TOPICAL APPLICATIONS AND INJECTIONS AND OPHTHALMIC FORMULATIONS, METHODS FOR MANUFACTURING THEREOF, AND METHODS FOR DELIVERY OF A DRUG-DELIVERY COMPOSITION” (THERAKINE BIODELIVERY GMBH, priority 2013, published 2016).

Assays:
[1] = system: rabbits undergoing photorefractive keratectomy (PRK) surgery; assay: Rabbit PRK study of canakinumab incorporated in the matrix formulation (Example 3); assay type: in vivo
Method: In Example 3, a further rabbit study, similar to the design of Example 2 above, was performed using Novartis's canakinumab, a fully human antibody against Il-1 beta, incorporated in the matrix formulation using hyaluronic acid microparticles enhancing corneal adherence.
Even though it is described that canakinumab does differ from rabbit IL-1 in one amino acid, this study was performed to study the adherence characteristics, pk, and safety/tolerability of EpiKine delivering a different Il-1 inhibitor.

[2] = system: rabbits following photorefractive keratectomy (PRK); details: rabbit, in vivo; cited from earlier work
[3] = system: rabbits undergoing photorefractive keratectomy (PRK) surgery; assay: Rabbit photorefractive keratectomy (PRK) study of matrix formulation with IL-1ra versus steroid control (Example 2); assay type: in vivo; details: lower doses of IL-1ra and steroid group compared with higher dose of IL-1ra and control group, week 3; FIG. 6
Method: In Example 2; various concentrations of IL-1ra, i.e. 50 mg/ml or 2.5 mg/drop, 25 mg/ml or 1.25 mg/drop, and 5 mg/ml or 0.25 mg/drop (solutions A-C), were compared to a standard steroid control (fluorometholone) in rabbits undergoing photorefractive keratectomy (PRK) surgery. […] The final hyaluronic acid concentration (i.e. the hyaluronic acid concentration in the final matrix formulation) was 0.526% w/w, based on the total weight of the matrix formulation.
Each rabbit received PRK in both eyes at a 100 μm ablation depth. In each rabbit, the right eye (OD) served as the treated eye while the left eye (OS) served as control. […]
As before corneal clarity, forward scatter and haze measurement were used as out-come parameters. Haze formation and scattering was assessed via slit lamp exam by an ophthalmologist. The timing for re-epithelization to occur in both the treatment and control groups was measured.
In addition Pentacam technology was used to image the anterior segment of the eye via a rotating Scheimpflug process that supplied pictures in three dimensions, allowing for a precise measurement of the shape, thickness, and the contour of the cornea. Using this method, the center of the cornea, which is most critical for refractive surgery planning, is measured precisely because of this rotational imaging process. […]

[4] = system: freshly isolated and subcultured corneal fibroblasts; assay: α-SMA positive corneal fibroblasts in normal or serum-free media, confocal microscopy on day 4 (Example 4); assay type: cell-based, rabbit; details: serum-free media, 30 μg/mL, both subcultured and freshly isolated cells
Method: Since there is a variable amount of growth factors such as IL-1 in serum, the presence of serum may offset the effect of blocking IL-1 with the matrix formulation. In this experiment, freshly isolated and subcultured corneal fibroblasts (P2-P5) were seeded at a density of 5,000 cells/cm^2 and cultured with 30 μg/mL with human recombinant IL-1ra in either normal (NM) or Serum-Free (SF) media. Cells were analyzed on day 4 for levels of α-SMA with confocal microscopy. Cell numbers in serum-free samples were too low to recover enough protein for Western Blot analysis. 5 individuals independently counted 3 images of each of 3 samples per condition for α-SMA positive cells. Serum-free media induced lower α-SMA expression in freshly isolated cells but had no effect on subcultured cells. […] This finding supports that the phenotype of subcultured cells can be influenced by the matrix formulation.
Percentage of freshly isolated (FI) and subcultured (SC) RCFs expressing α-SMA as determined from confocal immunofluorescence on day 4 in the following conditions: normal media (NM), normal media with IL-1ra (NM+IL-1ra), serum-free (SF), and serum-free with IL-1ra (SF+IL-1ra). SF conditions decreased α-SMA levels in FI but not in SC cells. […] Data represents mean+/−standard error with n=3 (* indicate p<<0.001, θ indicate p<0.05, φ indicate p<0.005).

[5] = every data point, not statistically significant

Compound | objective haze (HRT stromal haze) [1, 5] | serious adverse events such as infections or worsening infections [2] | Pentacam density measurements [3] | α-SMA expression [4] | epithelial closure ([1]; 1.25 mg concentration, within the canakinumab concentrations) | foam layer thickness (histologic analysis) ([1]; 2.5 mg and 1.25 mg concentration compared to 0.25 mg concentration) | objective haze (Pentacam) densitometry values ([1]; 2.5 mg concentration group, each time point) | corneal haze ([1]; 2.5 mg concentration, almost all data points, not statistically significant) | subjective haze (slit lamp exam) ([1]; 2.5 mg concentration, within the canakinumab concentrations) | objective haze (HRT stromal haze) ([1]; 2.5 mg, compared to control, week 2) | epithelial closure ([1]; all concentrations, compared to steroid and control group, not statistically significant) | adverse events ([1]; any of the concentrations, preliminary results) | subjective haze (slit lamp exam) ([1]; compared to the control group) | safety compared to steroids ([1]; time frame administered in this study) | subjective haze (slit lamp exam) ([1]; weeks 2, 4, 5, not statistically significant)
CC(=O)[C@@]1(O)CC[C@H]2[C@@H]3C[C@H](C)C4=CC(=O)C=C[C@]4(C)[C@@]3(F)[C@@H](O)C[C@@]21C [Steroids, fluorometholone, reference compound] | least haze | – | – | – | – | – | – | – | – | – | – | – | – | – | –
IL-1ra: IL-1ra is a biologic agent (protein) that blocks IL-1 | – | No serious adverse events | statistically significant difference | significantly decreased | – | – | – | – | – | – | – | – | – | – | –
canakinumab | less haze than the control group | – | – | – | trend for faster closure | thinner foam layers | trend for lower densitometry values | trend towards lower corneal haze | trend for lower subjective haze values | statistically significant less haze | took longer to heal | No adverse events | as effective as steroids | non-inferior to steroids | lower haze
